Assay [1] concerns M-NFS-60 mouse myeloid leukemia lymphocytes. Description: CSF-1R-related cell proliferation experiment (Cell Titer Glo), M-NFS-60 cells with M-CSF. It counts as cell-based. Particulars: Lymphocyte, 72 h, 3 days, CTG, * = average of multiple tests. Here is the method:
C. CSF-1R-Related Cell Proliferation Experiment
Functional effects of compounds on cell proliferation were evaluated by using Cell Titer Glo (CTG) study in the present invention. M-NFS-60 mouse myeloid leukemia lymphocytes (cat. No. CCBJ078) from National Institutes For Food and Drug Control were cultured in the incubator under conditions of RPMI 1640 (Gibco, cat. No. 11875-119), 10% fetal bovine serum (Gibco, 10099-141), human 10 ng/mL M-CSF macrophage colony-stimulating factor (R&D, cat. No. MVN0915101), 37° C., and 5% CO2. Since ATP is an index for viable cell metabolism, CTG (Promega, #G7573) reagent is a homogeneous detection method for detecting the number of viable cells in the culture by quantifying ATP. Therefore, compound-mediated inhibition for cell proliferation/survival was evaluated by quantifying ATP content in cells, and the specific experimental process was as follows:
1. The cells were plated into a tissue-culture-medium-treated 96-well plate (Costar #3904) with 5,000 cells/well/80 μL fresh culture medium;
2. 24 hours later, 10 μL culture medium containing testing compound with 10-fold of final concentration was added to each well;
3. 10 μL of culture medium containing M-CSF with 10-fold of the final concentration was then added to each well;
4. dosage effect was evaluated by testing the 3-fold serial dilutions of the compound;
5. after the cells were incubated for 3 days at 37° C. and 5% CO2, the inhibition on cell survival was quantified after 50 μL of CTG was added and the luminescence assay was performed;
6. the compound concentration leading to half maximal inhibitory (IC50) and the compound concentration leading to absolute half maximal inhibitory (Absolute IC50) were measured by a plate reader (M1000, Tecan) and a four-parameter curve fit in Graphpad Prism 7.
(Cellular ATP, detected with luciferase, serves as a proxy for viable cell number.)

For assay [2], the target named is KIT kinase (Homo sapiens, UniProt P10721). The experiment in a line: KIT in vitro biochemical kinase study (Caliper EZ Reader). Particulars: Caliper mobility shift; read-out: Enzymatic experiment KIT IC50. The method, then:
(§1) B. KIT/PDGFRA In Vitro Biochemical Kinase Study
(§2) 1. Preparation of 1-Fold Kinase Buffer and Stop Solution
(§3) 1.2 stop solution: 100 mM HEPES, pH 7.5, 0.015% Brij-35, 0.2% Coating Reagent #3, 50 mM EDTA
(§4) 2. Preparation of Compound Solution
(§5) 2.1 Dilution of Compound Solution
(§6) 1) The final concentration of the compound solution was 40 μM, and the concentration of the prepared stock solution was 50 times of the final concentration, i.e., 2 mM.
(§7) 2) 80 μL of 100% DMSO was added to the second well of the 96-well plate, then 20 μL of 10 mM compound solution was added, and thereby 2 mM compound solution was prepared, 60 μL of 100% DMSO was added to other wells, 20 μL of compound was taken from the second well, added to the third well and diluted by 4 times. This serial 4-time dilution was conducted in sequence for the total of 10 concentrations.
(§8) 2.2 5-Fold Compound Solution Transferred to a Reaction Plate
(§9) 1) 10 μL of solution was taken from each well of the above 96-well plate and added to another 96-well plate, and 90 μL of kinase buffer was added.
(§10) 2) 5 μL of solution was taken from the above 96-well plate and added to a 384-well reaction plate.
(§11) 1) KIT/PDGFRA kinase was added to the 1-fold kinase buffer solution to obtain a 2.5-fold kinase solution.
(§12) 2) FAM-labeled polypeptide and ATP were added to the 1-fold kinase buffer solution to obtain a 2.5-fold substrate solution.
(§13) 3) 10 μL of 2.5-fold kinase solution was added to the 384-well reaction plate, which already contained 5 μL of 5-fold compound in 10% DMSO. And the mixed solution was incubated at room temperature for 10 min.
(§14) 4) 10 μL of 2.5-fold substrate solution was added to the 384-well reaction plate.
(§15) 5) Kinase reaction and termination: the mixed solution was incubated at 28° C. for a certain period of time, and 25 μL of stop solution was added to stop the reaction.
(§16) 2.4 Data Reading of Caliper EZ Reader II
(§17) 2.5 Calculation of Percent Inhibition and IC50
(§18) 1) Percent conversion data were copied from the Caliper EZ Reader. […]

Assay [3] concerns the target PDGFRA kinase (Homo sapiens, UniProt P16234). The experiment in a line: PDGFRA in vitro biochemical kinase study (Caliper EZ Reader). Particulars: Caliper mobility shift; read-out: Enzymatic experiment PDGFRA IC50. Here is the method:
as §1, §2, §3, §4, §5, §6, §7, §8, §9, §10, §11, §12, §13, §14, §15, §16, §17, §18

In assay [4] the target is CSF-1R (Homo sapiens, UniProt P07333). The experiment in a line: CSF-1R in vitro biochemical kinase study (ADP-Glo assay). Particulars: 500 μM ATP, * = average of multiple tests, read-out: Enzymatic experiment CSF1R IC50. The method, then: A. CSF-1R In Vitro Biochemical Kinase Study
In the present invention, the inhibitory activity of compounds against the CSF-1R activity was determined by using CSF-1R ADP-Glo assay. The compound-mediated inhibition effect was achieved by inhibiting the production of ADP from consumption of ATP, and the activities of compounds were evaluated by using the ADP-Glo kit (Promega, cat. No. V9101). The specific experimental process was as follows:
1. The kinase reaction performed in the present invention was carried out in a 384-well plate (Perkinelmer, cat. No. 6007290), 3.95 nM of CSF-1R, 500 μM of ATP, and 0.2 mg/mL of polypeptide (Poly (Glu4, Try1), Sigma, cat. No. P0275) were respectively weighed and added to each well:
2. following reagents were then added to each well to reach the final reaction system: 40 mM Tris, pH 7.5, 20 mM MgCl2, 0.01% Triton X-100, 0.1 mg/mL BSA, 2.5 mM DTT, and 0.1% DMSO;
3. the reaction was conducted at 30° C. for 60 min;
4. then an equal volume of stop solution (ADP-Glo) was added to the kinase reaction system;
5. the mixed solution was incubated at 25° C. for 60 min, and the kinase reaction was then terminated;
6. a two-fold volume of detection reagent was then added to each well;
7. the mixed solution was incubated at 25° C. for 30 min;
8. the compound IC50 value was measured by using a plate reader (Tecan, M1000) and a four-parameter curve was generated in Graphpad Prism.

SMILES strings stand for the structures. Like-named read-outs stand apart in the source and are kept apart here.

KIT kinase, sequence (P10721 26-976): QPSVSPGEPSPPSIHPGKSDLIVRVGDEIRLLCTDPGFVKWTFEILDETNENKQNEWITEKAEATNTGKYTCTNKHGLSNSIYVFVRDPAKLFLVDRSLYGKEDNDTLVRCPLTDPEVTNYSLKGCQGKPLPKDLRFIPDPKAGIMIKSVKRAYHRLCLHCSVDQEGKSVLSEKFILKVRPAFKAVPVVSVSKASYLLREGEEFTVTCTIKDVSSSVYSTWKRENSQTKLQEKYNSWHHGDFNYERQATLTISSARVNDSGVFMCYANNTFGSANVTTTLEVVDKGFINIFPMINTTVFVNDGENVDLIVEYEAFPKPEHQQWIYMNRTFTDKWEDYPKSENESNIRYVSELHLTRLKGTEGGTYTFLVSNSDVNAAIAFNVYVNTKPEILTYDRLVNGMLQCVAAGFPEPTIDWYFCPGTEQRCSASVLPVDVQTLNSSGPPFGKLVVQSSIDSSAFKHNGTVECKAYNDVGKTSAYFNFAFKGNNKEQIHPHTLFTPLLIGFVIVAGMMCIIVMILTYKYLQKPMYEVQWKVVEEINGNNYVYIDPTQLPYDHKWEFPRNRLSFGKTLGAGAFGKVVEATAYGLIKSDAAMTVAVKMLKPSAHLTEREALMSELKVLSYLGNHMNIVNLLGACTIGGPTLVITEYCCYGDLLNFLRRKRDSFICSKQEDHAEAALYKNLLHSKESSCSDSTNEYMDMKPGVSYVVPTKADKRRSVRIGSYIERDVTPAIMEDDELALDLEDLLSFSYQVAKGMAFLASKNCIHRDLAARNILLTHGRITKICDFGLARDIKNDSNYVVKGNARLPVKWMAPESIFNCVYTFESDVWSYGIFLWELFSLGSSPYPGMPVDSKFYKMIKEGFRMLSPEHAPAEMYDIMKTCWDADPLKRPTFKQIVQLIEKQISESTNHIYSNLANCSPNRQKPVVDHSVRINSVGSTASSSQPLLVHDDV
PDGFRA kinase, sequence (P16234 24-1089): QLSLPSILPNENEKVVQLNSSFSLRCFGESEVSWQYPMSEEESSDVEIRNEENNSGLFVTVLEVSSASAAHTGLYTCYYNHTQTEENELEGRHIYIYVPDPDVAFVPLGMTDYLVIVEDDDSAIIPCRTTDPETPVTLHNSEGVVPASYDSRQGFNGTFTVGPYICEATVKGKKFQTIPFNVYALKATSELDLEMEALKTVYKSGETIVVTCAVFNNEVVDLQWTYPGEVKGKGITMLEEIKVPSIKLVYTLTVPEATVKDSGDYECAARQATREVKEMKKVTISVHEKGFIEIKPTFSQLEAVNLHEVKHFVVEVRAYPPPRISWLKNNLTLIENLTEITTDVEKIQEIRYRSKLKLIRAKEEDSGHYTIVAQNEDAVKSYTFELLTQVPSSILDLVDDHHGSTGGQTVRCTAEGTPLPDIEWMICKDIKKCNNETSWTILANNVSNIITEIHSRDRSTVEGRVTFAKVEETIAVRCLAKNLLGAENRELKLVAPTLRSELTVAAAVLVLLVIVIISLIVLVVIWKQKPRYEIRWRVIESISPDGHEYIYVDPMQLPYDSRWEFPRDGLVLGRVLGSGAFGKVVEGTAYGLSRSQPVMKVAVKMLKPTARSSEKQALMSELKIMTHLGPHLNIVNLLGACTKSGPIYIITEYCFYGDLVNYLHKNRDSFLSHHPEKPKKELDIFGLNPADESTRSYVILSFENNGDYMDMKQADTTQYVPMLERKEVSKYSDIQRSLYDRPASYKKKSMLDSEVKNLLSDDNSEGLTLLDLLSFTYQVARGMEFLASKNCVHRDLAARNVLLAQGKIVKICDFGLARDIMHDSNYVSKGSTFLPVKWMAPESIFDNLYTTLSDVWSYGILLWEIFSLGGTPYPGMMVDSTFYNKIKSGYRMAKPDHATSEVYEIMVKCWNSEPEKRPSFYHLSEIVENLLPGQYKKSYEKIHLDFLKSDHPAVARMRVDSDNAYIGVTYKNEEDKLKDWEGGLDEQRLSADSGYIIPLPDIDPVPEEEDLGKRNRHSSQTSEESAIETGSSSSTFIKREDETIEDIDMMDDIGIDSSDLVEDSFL
CSF-1R, sequence (P07333 20-972): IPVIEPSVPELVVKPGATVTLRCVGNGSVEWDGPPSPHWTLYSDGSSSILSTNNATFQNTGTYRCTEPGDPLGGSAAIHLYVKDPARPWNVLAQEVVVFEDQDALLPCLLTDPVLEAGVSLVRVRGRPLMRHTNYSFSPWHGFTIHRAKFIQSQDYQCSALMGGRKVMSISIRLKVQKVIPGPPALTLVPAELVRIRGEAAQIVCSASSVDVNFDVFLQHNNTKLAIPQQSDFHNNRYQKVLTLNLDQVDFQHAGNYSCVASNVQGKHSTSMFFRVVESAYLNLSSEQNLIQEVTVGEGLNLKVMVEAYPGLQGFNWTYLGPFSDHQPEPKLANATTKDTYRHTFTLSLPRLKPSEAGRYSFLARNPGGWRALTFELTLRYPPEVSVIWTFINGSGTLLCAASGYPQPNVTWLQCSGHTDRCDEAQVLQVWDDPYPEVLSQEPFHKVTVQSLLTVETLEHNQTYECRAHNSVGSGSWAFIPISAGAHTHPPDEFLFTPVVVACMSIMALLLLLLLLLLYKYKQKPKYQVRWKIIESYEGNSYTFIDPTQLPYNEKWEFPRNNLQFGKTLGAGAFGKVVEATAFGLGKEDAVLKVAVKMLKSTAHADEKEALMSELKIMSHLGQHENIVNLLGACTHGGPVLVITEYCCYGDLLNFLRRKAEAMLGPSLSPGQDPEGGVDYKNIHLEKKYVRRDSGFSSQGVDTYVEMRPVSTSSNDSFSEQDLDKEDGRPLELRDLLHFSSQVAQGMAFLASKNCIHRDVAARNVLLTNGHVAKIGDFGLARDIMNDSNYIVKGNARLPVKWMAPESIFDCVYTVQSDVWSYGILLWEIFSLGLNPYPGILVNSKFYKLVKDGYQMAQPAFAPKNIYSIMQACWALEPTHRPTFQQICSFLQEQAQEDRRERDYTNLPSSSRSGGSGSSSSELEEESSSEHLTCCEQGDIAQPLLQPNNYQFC

A word on the IC50: it is the concentration at which inhibition is half-maximal. On to `Cc1nc(-c2cnc3n(c2=O)CCCN3C(C)C)ccc1Oc1ccnc(-c2cnn(C)c2)c1` [Example 5, 9-isopropyl-3-(6-methyl-5-((2-(1-methyl-1H-pyrazol-4-yl)pyridin-4-yl)oxy)pyridin-2-yl)-6,7,8,9-tetrahydro-4H-pyrimido[1,2-a]pyrimidin-4-one], for which the concentration for half-maximal inhibition (IC50) in assay [1] (read-out: Cytological experiment CSF1R IC50) stood at 127 nM; in assay [1] (absolute half maximal inhibition, read-out: Cytological experiment CSF-1R Absolute IC50) it was 114 nM; in assay [2], 22.6 nM; in assay [3], 226 nM; in assay [4] it was 95.2 nM.

These data come from patent US11130762B2, “Azaaryl derivative, preparation method therefor, and application thereof for use in pharmacy” (Abbisko Therapeutics Co., Ltd., priority 2017, dated 2021).
